Assay results taken from article PMC4623321 (Clinical genitourinary cancer, 2013).
Marks after values point to notes of the source that are not given here.

Legend:
[1] = test system: patients with advanced solid tumors; settings: oral
[2] = test system: S6 ribosomal protein phosphorylation (Ser235/236) in PBMCs; experiment: PBMC phospho/total S6RP analysis; assay type: in vivo, human; settings: PBMCs of patients, baseline to 1 month of treatment (with vatalanib)
[3] = Pharmacokinetic assessments in patient plasma; assay type: in vivo, human
solid tumors = settings: cited from earlier work
[4] = everolimus with vatalanib, day 29, mean ± SD
[5] = vatalanib after everolimus started, day 29, mean ± SD
[6] = vatalanib alone, day 14, mean ± SD

With `CO[C@H]1C[C@@H]2CC[C@@H](C)[C@@](O)(O2)C(=O)C(=O)N2CCCC[C@H]2C(=O)O[C@H]([C@H](C)C[C@@H]2CC[C@@H](OCCO)[C@H](OC)C2)CC(=O)[C@H](C)/C=C(\C)[C@@H](O)[C@@H](OC)C(=O)[C@H](C)C[C@H](C)/C=C/C=C/C=C/1C` [Everolimus] the “Maximum tolerated dose (MTD) of everolimus in the combination” value ([1]; combined with vatalanib 1000 mg daily) was 5 mg daily, the “Mean change in phospho/total ratio of S6RP” value [2] was “no mean change” and the CLss/F [3, 4] was 14.3 ± 3.7 L/h. For the same molecule, the Cssavg [3, 4] was 15.7 ± 4.9 ng/mL, the Cssmax [3, 4] was 48.5 ± 14.8 ng/mL and the “Time of peak of mean plasma concentration” value ([3]; everolimus, cycle 1 day 29, mean concentration-time curve (Fig. 3B)) was 2 h. It also gave a Vd/F ([3]; human, plasma, oral) of 216 ± 74 L, an AUC ([3]; human, plasma, oral, everolimus with vatalanib, day 29, 24-hour dosing interval, mean ± SD) of 377 ± 117 ng·h/mL and a half-life ([3]; human, plasma, oral, t1/2, everolimus with vatalanib, day 29, mean ± SD) of 14 ± 2.5 h. For the same molecule, the Tmax ([3]; human, plasma, oral, tmax, everolimus with vatalanib, day 29, median (range)) was 1.31 h.
In the case of `Clc1ccc(Nc2nnc(Cc3ccncc3)c3ccccc23)cc1` [Vatalanib], the “Maximum tolerated dose (MTD) of vatalanib in the combination” value ([1]; combined with everolimus 5 mg daily) is listed as 1000 mg daily, the “Daily dose with radiographic evidence of a decrease in tumor blood flow” value (solid tumors; several clinical trials) is listed as no less than 1000 mg and the Tolerable dosing (solid tumors; single agent, clinical trials) is listed as no more than 2000 mg daily. The “Effect of adding everolimus on systemic exposure of vatalanib (AUC)” value ([3]; day 14 vs day 29) was “not significantly affected”, the “Effect of everolimus on the PK parameters of vatalanib (maximum or steady-state plasma concentrations)” value ([3]; day 14 vs day 29) was “no substantial effect” and the Vd/F ([3]; human, plasma, oral) was 488 ± 481 L. The AUC ([3]; human, plasma, oral, vatalanib after everolimus started, day 29, 24-hour dosing interval, mean ± SD) was 21600 ng·h/mL, the AUC ([3]; human, plasma, oral, vatalanib alone, day 14, 24-hour dosing interval, mean ± SD) was 26400 ng·h/mL and the half-life ([3]; human, plasma, oral, t1/2, vatalanib after everolimus started, day 29, mean ± SD) was 5.7 h. The half-life ([3]; human, plasma, oral, t1/2, vatalanib alone, day 14, steady state, plasma, mean ± SD) was 6.3 h, the Tmax ([3]; human, plasma, oral, tmax, vatalanib after everolimus started, day 29, median (range)) was 2 h and the Tmax ([3]; human, plasma, oral, tmax, vatalanib alone, day 14, median (range)) was 2 h. It also gave a Cssavg [3, 5] of 901 ± 403 ng/mL, a Cssmax [3, 5] of 3963 ± 1861 ng/mL and a t1/2 [3, 5] of 5.71 ± 3.06 h. For the same molecule, the Tmax ([3]; vatalanib after everolimus started, day 29, median (range)) was 2.08 (1.00-4.08) ^a h, the Cssavg [3, 6] was 1099 ± 551 ng/mL and the Cssmax [3, 6] was 4825 ± 2910 ng/mL. For the same molecule, the t1/2 ([3]; vatalanib alone, day 14, steady state, plasma, mean ± SD) was 6.32 ± 4.46 h.
